From ChEMBL document CHEMBL1151549, “Design and synthesis of new taxol-containing aminophosphates as protaxols” (Bioorg Med Chem Lett, 1997)
In brackets after ≈: the same amount, converted by molar mass.

system: HL-60; experiment: Tested in vitro for the anticancer activity against HL-60 leukemia cells; format: functional, cell-based; details: Homo sapiens

IC50 [µg/mL]	Compound
0.3 (≈ 0.299 µM)	CC(=O)O[C@H]1C(=O)[C@@]2(C)[C@H]([C@H](OC(=O)c3ccccc3)[C@]3(O)C[C@H](OC(=O)[C@H](OP(=O)(O)OCCCCN)[C@@H](NC(=O)c4ccccc4)c4ccccc4)C(C)=C1C3(C)C)[C@]1(OC(C)=O)CO[C@@H]1C[C@@H]2O
0.001 (≈ 0.00117 µM)	CC(=O)O[C@H]1C(=O)[C@@]2(C)[C@H]([C@H](OC(=O)c3ccccc3)[C@]3(O)C[C@H](OC(=O)[C@H](O)[C@@H](NC(=O)c4ccccc4)c4ccccc4)C(C)=C1C3(C)C)[C@]1(OC(C)=O)CO[C@@H]1C[C@@H]2O [PACLITAXEL]
0.8 (≈ 0.819 µM)	CC(=O)O[C@H]1C(=O)[C@@]2(C)[C@H]([C@H](OC(=O)c3ccccc3)[C@]3(O)C[C@H](OC(=O)[C@H](OP(=O)(O)OCCN)[C@@H](NC(=O)c4ccccc4)c4ccccc4)C(C)=C1C3(C)C)[C@]1(OC(C)=O)CO[C@@H]1C[C@@H]2O
4 (≈ 4.04 µM)	CC(=O)O[C@H]1C(=O)[C@@]2(C)[C@H]([C@H](OC(=O)c3ccccc3)[C@]3(O)C[C@H](OC(=O)[C@H](OP(=O)(O)OCCCN)[C@@H](NC(=O)c4ccccc4)c4ccccc4)C(C)=C1C3(C)C)[C@]1(OC(C)=O)CO[C@@H]1C[C@@H]2O
